Test results: PubChem BioAssay (NCI)
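Dose response: 5 concentrations. Exposure: 48 h. Format: 96-well plates. Endpoint: linear interpolation; highest concentration if not reached. GI50: concentration for 50% inhibition of growth. TGI denotes the concentration required for complete inhibition of growth.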 Calls of active or inactive are those of the source. Cut-off read from the data, not from the text of the source: active = GI50 below about 0.43 µM; inactive = the rest.

Tests used:
Assay in all cases: NCI-60 cell line screen, 48 h
[1] = system: 786-0 renal
[2] = system: A498 renal
[3] = system: A549 NSCLC
[4] = system: COLO 205 colon
[5] = system: HS 578T breast
[6] = system: KM12 colon
[7] = system: SF-268 CNS
[8] = system: SN12C renal

SMILES | GI50 [1] [µM] | TGI [1] [µM] | GI50 [2] [µM] | TGI [2] [µM] | GI50 [3] [µM] | TGI [3] [µM] | GI50 [4] [µM] | TGI [4] [µM] | GI50 [5] [µM] | TGI [5] [µM] | GI50 [6] [µM] | TGI [6] [µM] | GI50 [7] [µM] | TGI [7] [µM] | GI50 [8] [µM] | TGI [8] [µM] | outcome [2] | outcome [3] | outcome [5] | outcome [7]
C[N+]1=C(/C=C/c2ccc(O)c3ncccc23)C(C)(C)c2ccccc21 | 3.57 | 13 | 1.97 | 11 | 2.96 | 13.4 | 2.3 | 6.11 | 2.14 | 8.14 | 2.97 | 10.5 | 2.73 | 14.1 | 2.82 | 10.4 |  |  |  | 
CCCCCCCC(=O)OCC/C=C/C1OC1C1OC(=O)/C=C\C=C\c2nc(oc2C)/C=C(/C)CCC2OC2C1OC(=O)NC(C)=O (stereo not given) | 0.033 | 0.203 | 0.00368 | 0.00927 | 0.026 | 2.64 | 0.0581 | 0.193 | 0.0776 | 0.221 | 0.0271 | 0.119 | 0.0401 | 1.74 | 0.0491 | 0.554 |  |  |  | 
CC(C)(CO)N1CCN(C(=S)Nc2ccccc2)CC1 |  | > 100 |  | > 100 |  | > 100 |  | > 100 |  | > 100 |  | > 100 |  | > 100 |  | > 100 |  |  |  | 
COc1ccc2c(c1)CCCN2c1c2ccccc2nc2ccccc12 | 0.549 | 9.3 | 0.269 | 0.808 | 0.418 | > 100 | 0.269 | 0.849 | 0.314 | 5.86 | 0.386 | 15.6 | 0.933 | > 100 | 0.73 | > 100 |  |  |  | 
O=C(CC1C(=O)NN(c2ccc(Br)cc2)C1=O)c1cc(O)ccc1O (stereo not given) | 22.4 | > 50 | > 50 | > 50 | > 50 | > 50 | 23.3 | > 50 | 26.2 | > 50 | 9.84 | 40.6 | 29 | > 50 | 13.6 | 40.3 |  |  |  | 
O=C(Nc1ccncc1)C(=O)c1cn(S(=O)(=O)c2cccc(F)c2)c2ccccc12 | 3.64 | > 100 | 13.4 | 97 | 13.2 | > 100 | 32.4 | > 100 | 8.31 | > 100 | 3.04 | > 100 | 10.9 | > 100 | 5.25 | > 100 |  |  |  | 
CCCCCCCC[C@@H](O)CC(=O)N[C@@H](CC(N)=O)C(=O)N[C@@H](CCC(N)=O)C(=O)N[C@@H](CC(=O)c1cc(C)cc(O)c1C(=O)c1c(O)cccc1O)CC(C)C | 0.507 | 9.84 | 2.29 | 7.44 | 5.31 | > 100 | 0.399 | 12 | 3.46 | 62 | 0.971 | 3.3 | 0.374 | 2.55 | 2.13 | 15.8 |  |  |  | 
COc1ccc(-c2nc(-c3nc4ccc(Cl)cc4[nH]3)c3ccccn23)cc1 | 1.6 | 3.22 | 5.61 | 29.2 | 1.82 | 4.27 | 3.61 | 13.3 | 2.76 | 8.06 | 7.68 | > 100 | 2.93 | 9.07 | 3.75 | 17.8 |  |  |  | 
COc1ccc(C(=O)C#Cc2cnc(OC)nc2OC)cc1 | 22000 |  |  | 35.1 |  | 15.7 |  | 42100 |  | 27.7 | 56100 | 11.6 |  | 7.41 |  | 2.63 | inactive | inactive | inactive | inactive
O=C(CCc1nnc2sc(-c3ccc(Cl)cc3Cl)nn12)c1nc2ccccc2[nH]1 | 1.48 | 2.89 | 0.845 | 2.26 | 1.88 | 4.96 | 1.09 | 2.65 | 2.23 | 8.29 | 1.25 | 2.86 | 0.994 | 2.85 | 1.41 | 4.22 |  |  |  | 
CC/C=C\C[C@H](F)C/C=C1/C(=O)C=C[C@@H]1C/C=C\CCCC(=O)O | 7.24 | 13.3 | 5.59 | 11 | 7.3 | 18.8 | 5.3 | 12.2 | 13 | > 32.5 | 4.65 | 13.3 | 6.55 | 22.4 | 7.01 | 20.5 |  |  |  | 
CC1CN1C(=O)NCCCCCCNC(=O)N1CC1C (stereo not given) |  | > 100 |  | > 100 |  | > 100 |  | > 100 |  | > 100 |  | > 100 |  | > 100 |  | > 100 |  |  |  | 
Cc1ccc(-c2nc3nc(-c4ccccc4)nc(N4CCCNCC4)c3o2)cc1 | 1.52 | 2.97 | 1.53 | 3.13 | 1.65 | 3.06 | 1.96 | 3.66 | 1.83 | 4.02 | 1.77 | 3.41 | 1.74 | 3.63 | 1.56 | 3.06 |  |  |  | 
CC1(C)OC2=C(CC1Br)C(=O)C(=O)c1ccccc12 (stereo not given) | 1.91 | 3.43 | 1.43 | 3.07 | 2.41 | 4.87 | 1.89 | 3.39 | 2.65 | 7.69 | 1.75 | 3.19 | 1.75 | 3.32 | 1.84 | 3.75 |  |  |  | 
CS(=O)(=O)c1ccc(-n2nc(C(F)(F)F)cc2OC2CCCC2)cc1 | 34 | > 100 | 25.2 | 56.2 | 25.7 | 79.4 | 29 | 81.7 | > 100 | > 100 | 38.5 | > 100 | 36.1 | > 100 | 25.8 | 71.7 |  |  |  | 
COc1cc[nH]c1/C=C1\C(=O)Nc2ccc(F)c(C#CC3(O)CCNCC3)c21 | 0.106 | 1.68 | 0.108 | 0.568 | 0.0985 | 1.18 | 0.0303 | 0.372 | 0.0754 | 1.54 | 0.0025 | 0.726 | 0.196 | 0.848 | 0.0626 | 2.5 |  |  |  | 

SMILES | GI50 [1] [µM] | TGI [1] [µM] | GI50 [2] [µM] | TGI [2] [µM] | GI50 [3] [µM] | TGI [3] [µM] | GI50 [4] [µM] | TGI [4] [µM] | GI50 [5] [µM] | TGI [5] [µM] | GI50 [6] [µM] | TGI [6] [µM] | GI50 [7] [µM] | TGI [7] [µM] | GI50 [8] [µM] | TGI [8] [µM] | outcome [2] | outcome [3] | outcome [5] | outcome [7]
CCCC(=O)OCC1OC(n2cnc3c(=S)nc[nH]c32)C(OC(=O)CCC)C1OC(=O)CCC (stereo not given) | 3.46 | > 100 | 33.2 | > 100 | 38.1 | > 100 | 4.57 | 18.9 | > 100 | > 100 | 4.99 | > 100 | 5.95 | > 100 | 4.58 | > 100 |  |  |  | 
O=C(O)c1nn(-c2ccccc2-c2n[nH]c(=O)[nH]c2=O)c(=O)[nH]c1=O |  | > 100 |  | > 100 |  | > 100 |  | > 100 |  | > 100 |  | > 100 |  | > 100 |  | > 100 |  |  |  | 
O=C(O)CCNC1CCCCC1 | > 100 | > 100 | > 100 | > 100 | > 100 | > 100 | > 100 | > 100 | > 100 | > 100 | > 100 | > 100 | > 100 | > 100 | > 100 | > 100 |  |  |  | 
O=S(=O)(NC1=NCCN1C(=S)SN1CCn2c1nsc2=S)c1cccc(Cl)c1 | 19.9 | 55.3 | 34.3 | 81.5 | 30.3 | 91.2 | 7.48 | 20.7 | 39.3 | > 100 | 16.6 | 34.1 | 20.2 | 46.7 | 14.9 | 40.6 |  |  |  | 
COC(=O)Nc1nc2ccc(Oc3ccc(NC(=O)Nc4cc(C(F)(F)F)ccc4F)cc3)cc2s1 | > 25 | > 25 |  | > 25 | 15 | > 25 | > 25 | > 25 | 6.21 | > 25 | 0.0859 | > 25 | 8.5 | > 25 | > 17.3 | > 25 |  |  |  | 
COc1ccc(-c2onc(N)c2-c2cc(OC)c3c(c2)OCO3)cc1 | 7.24 | > 100 | 1.5 | 10.9 | 2.95 | > 100 | 2.2 | 6.86 | 2.65 | > 100 | 1.85 | > 75.4 | 8.58 | > 100 | 4.26 | > 100 |  |  |  | 
O=C1CCC(N2C(=O)c3ccccc3C2=O)C(=O)N1CO (stereo not given) | > 100 | > 100 | > 100 | > 100 | > 100 | > 100 | > 100 | > 100 | > 100 | > 100 | > 100 | > 100 | > 100 | > 100 | 73.7 | > 100 |  |  |  | 
O=C1Nc2ccccc2C1(c1ccc(O)cc1)c1ccc(O)cc1 | 26.7 | 75.9 | 17.8 | 47.1 | 27.9 | > 96.7 | 0.125 | 4.38 | 0.0932 | 0.298 | 12.1 | 28.4 | 24.4 | 77.9 | 0.312 | 50.6 |  |  |  | 
COc1cc2ncn(-c3cc(OCc4cccs4)c(C(N)=O)s3)c2cc1OC | 4.86 | > 25 | 1.25 | 16.9 | 1.87 | > 17.5 | 1.11 | > 13.9 | 5.94 | > 25 | 0.772 | > 17.5 | 1.95 | > 25 | 2.8 | > 25 |  |  |  | 
O=C(O)/C=C(\c1nc2ccc([N+](=O)[O-])cc2[nH]1)c1cc(Cl)ccc1O | 3.77 | 28.3 | 2.46 | 8.7 | 3.07 | 14.1 | 2.87 | 11.2 | 4.97 | > 100 | 2.84 | 17.7 | 3.62 | 28.3 | 2.71 | 33.8 |  |  |  | 
C#CCNC(=O)c1cccc2c1cc(C)n2-c1nc2c(c(NCc3ccccc3)n1)CCCC2 | 0.0292 | 0.0788 | 0.0218 | 0.0591 | 0.0381 | 0.124 | 0.0191 | 0.0382 | 0.0321 | 0.954 | 0.0231 | 0.065 | 0.0257 | 0.0771 | 0.0204 | 0.0689 |  |  |  | 
Nc1nc(N(Cc2ccccc2)c2ccccc2)c2cn[nH]c2n1 | 4.63 | > 100 | 3.03 | 9.23 | 5.47 | > 100 | 2.9 | > 100 | 2.7 | 7.91 | 3.23 | > 100 | 4.21 | > 100 | 5.71 | > 100 |  |  |  | 
O=C1c2cccc([N+](=O)[O-])c2C(=O)N1c1ncn[nH]1 |  | > 100 |  | > 100 |  | > 100 |  | > 100 |  | > 100 |  | > 100 |  | > 100 |  | > 100 |  |  |  | 
COc1cc2cc(Oc3ccc(NC(=O)Nc4ccc(Cl)c(C(F)(F)F)c4)cc3)c(C)nc2cc1OCCN1CCOCC1 | 1.89 | 4.15 | 2.45 | 9.62 | 2.13 | > 100 | 1.63 | 3.78 | 1.83 | 5.11 | 1.91 | 5.3 | 2.59 | 8.44 | 2.56 | 56.2 |  |  |  | 
CS(=O)(=O)CCNCc1ccc(-c2ccc3ncnc(Nc4ccc(OCc5ccccc5)cc4)c3c2)o1 | 4.35 | 8.73 | 2.98 | 8.27 | 5.19 | > 25 | 5 | 11.4 | 6.43 | > 20.5 | 8.85 | > 25 | 9.14 | > 25 | 5.87 | > 25 |  |  |  | 
